Results: the supplement of paper PMC8149375

Legend:
Settings in all cases: treatment: drug alone; 5 days
A498 [1] = test: minimum viability across doses, drug alone, relative to DMSO (fraction); higher = less growth inhibition
Method: (§1)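 Primary HTS: 8 RCC cell lines treated with 8 doses (up to 10 uM) of each library drug alone for 5 days; viability read by CellTiter-Glo and normalised to DMSO. GI50 was fitted with XLfit (4-parameter), AUC is the area under the dose-response curve, and minimum viability is the lowest fraction of DMSO viability across doses.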

CAKI-1 [2] = test: as above
Method: as §1

ACHN [3] = test: as above
Method: as §1

UO-31 [4] = test: as above
Method: as §1

SN12C [5] = test: as above
Method: as §1

786-O [6] = test: as above
Method: as §1

TK-10 [7] = test: as above
Method: as §1

769-P [8] = test: as above
Method: as §1

A498 [9] = test: GI50, drug alone; higher = less potent
Method: as §1

CAKI-1 [10] = test: GI50, drug alone; higher = less potent
Method: as §1

ACHN [11] = test: GI50, drug alone; higher = less potent
Method: as §1

UO-31 [12] = test: GI50, drug alone; higher = less potent
Method: as §1

SN12C [13] = test: GI50, drug alone; higher = less potent
Method: as §1

786-O [14] = test: GI50, drug alone; higher = less potent
Method: as §1

TK-10 [15] = test: GI50, drug alone; higher = less potent
Method: as §1

769-P [16] = test: GI50, drug alone; higher = less potent
Method: as §1

A498 [17] = test: AUC of dose-response viability curve, drug alone (arbitrary (AUC of normalised viability)); higher = less growth inhibition
Method: as §1

CAKI-1 [18] = test: as above
Method: as §1

ACHN [19] = test: as above
Method: as §1

UO-31 [20] = test: as above
Method: as §1

SN12C [21] = test: as above
Method: as §1

786-O [22] = test: as above
Method: as §1

TK-10 [23] = test: as above
Method: as §1

769-P [24] = test: as above
Method: as §1

Row | Structure (SMILES) | GI50, drug alone (ACHN [11]) [nM] | GI50, drug alone (786-O [14]) [nM] | minimum viability across doses (A498 [1]) | minimum viability across doses (CAKI-1 [2]) | minimum viability across doses (ACHN [3]) | minimum viability across doses (UO-31 [4]) | minimum viability across doses (SN12C [5]) | minimum viability across doses (786-O [6]) | minimum viability across doses (TK-10 [7]) | minimum viability across doses (769-P [8]) | GI50, drug alone (A498 [9]) [nM] | GI50, drug alone (CAKI-1 [10]) [nM] | GI50, drug alone (UO-31 [12]) [nM] | GI50, drug alone (SN12C [13]) [nM] | GI50, drug alone (TK-10 [15]) [nM] | GI50, drug alone (769-P [16]) [nM] | AUC of dose-response viability curve (A498 [17]) | AUC of dose-response viability curve (CAKI-1 [18]) | AUC of dose-response viability curve (ACHN [19]) | AUC of dose-response viability curve (UO-31 [20]) | AUC of dose-response viability curve (SN12C [21]) | AUC of dose-response viability curve (786-O [22]) | AUC of dose-response viability curve (TK-10 [23]) | AUC of dose-response viability curve (769-P [24])
1 | COc1cc2ncnc(Nc3ccc(O)c(Br)c3)c2cc1OC [WHI-P154] | 1510 | > 10000 | 0.955 | 0.351 | 0.27 | 1.1 | 0.789 | 0.594 | 0.435 | 0.553 | > 10000 | 6600 | > 10000 | > 10000 | 2480 | > 10000 | 5.3 | 3.22 | 2.49 | 6.61 | 3.48 | 3.09 | 2.33 | 3.27
2 | C[C@H](NC(=O)/C(C#N)=C/c1cccc(Br)n1)c1ccccc1 [WP1066] | 6700 | 4470 | 0.986 | 0.371 | 0.13 | 0.00632 | 0.581 | 0.015 | 0.932 | 0.0246 | > 10000 | 8920 | 7860 | > 10000 | > 10000 | 5250 | 4.19 | 3.38 | 3.23 | 4.12 | 3.23 | 3.07 | 3.62 | 3.44
3 | CCC[C@H](NC(=O)/C(C#N)=C/c1cccc(Br)n1)c1ccccc1 [WP1130] | 4370 | 1540 | 0.0682 | 0.0261 | 0.00429 | 0.0144 | 0.0172 | 0.00591 | 0.0704 | 0.0147 | 5120 | 4520 | 8040 | 4460 | 4100 | 4250 | 3.33 | 3.18 | 3.26 | 3.72 | 2.97 | 2.24 | 2.56 | 3.17
4 | COC[C@H]1OC(=O)c2coc3c2[C@@]1(C)C1=C(C3=O)[C@@H]2CCC(=O)[C@@]2(C)C[C@@H]1OC(C)=O [Wortmannin] | 98.1 | 49.3 | 0.421 | 0.301 | 0.426 | 0.643 | 0.387 | 0.00957 | 0.725 | 0.55 | 83.3 | 2420 | > 10000 | 83.5 | > 10000 | > 10000 | 3.03 | 2.45 | 2.78 | 2.58 | 2.78 | 1.99 | 3.1 | 3.15

The next lines start with results.

Row | GI50, drug alone (ACHN [11]) [nM] | GI50, drug alone (786-O [14]) [nM] | Structure (SMILES) | minimum viability across doses (A498 [1]) | minimum viability across doses (CAKI-1 [2]) | minimum viability across doses (ACHN [3]) | minimum viability across doses (UO-31 [4]) | minimum viability across doses (SN12C [5]) | minimum viability across doses (786-O [6]) | minimum viability across doses (TK-10 [7]) | minimum viability across doses (769-P [8]) | GI50, drug alone (A498 [9]) [nM] | GI50, drug alone (CAKI-1 [10]) [nM] | GI50, drug alone (UO-31 [12]) [nM] | GI50, drug alone (SN12C [13]) [nM] | GI50, drug alone (TK-10 [15]) [nM] | GI50, drug alone (769-P [16]) [nM] | AUC of dose-response viability curve (A498 [17]) | AUC of dose-response viability curve (CAKI-1 [18]) | AUC of dose-response viability curve (ACHN [19]) | AUC of dose-response viability curve (UO-31 [20]) | AUC of dose-response viability curve (SN12C [21]) | AUC of dose-response viability curve (786-O [22]) | AUC of dose-response viability curve (TK-10 [23]) | AUC of dose-response viability curve (769-P [24])
5 | 611 | 476 | COC(=O)Nc1ccc(-c2nc(N3CCOCC3)c3cnn(C4CCN(C(=O)OC)CC4)c3n2)cc1 [WYE-354] | 0.409 | 0.127 | 0.167 | 0.0127 | 0.274 | 0.346 | 0.293 | 0.165 | 6590 | 1260 | 2570 | 1890 | 1570 | 2270 | 3.73 | 2.49 | 2.21 | 3.63 | 2.54 | 1.9 | 2.35 | 2.75
6 | 551 | 1480 | COC(=O)Nc1ccc(-c2nc(N3CCOCC3)c3cnn(C4CCN(Cc5cccnc5)CC4)c3n2)cc1 [WYE-687] | 0.351 | 0.075 | 0.0636 | 0.00593 | 0.141 | 0.441 | 0.0981 | 0.184 | 4610 | 577 | 581 | 996 | 501 | 1590 | 3.76 | 2.23 | 2.34 | 2.83 | 2.45 | 2.92 | 2.1 | 2.67
7 | 496 | 1450 | C=CC(=O)Nc1cccc(Oc2nc(Nc3ccc(N4CCN(C)CC4)cc3)ncc2Cl)c1 [WZ3146] | 0.452 | 0.0135 | 0.0569 | 0.0177 | 0.0769 | 0.046 | 0.0399 | 0.146 | 9890 | 958 | 2600 | 2340 | 504 | 1900 | 3.49 | 2.62 | 2.34 | 3.76 | 2.85 | 2.27 | 2.07 | 2.71
8 | 845 | > 10000 | C=CC(=O)Nc1cccc(Oc2nc(Nc3ccc(N4CCN(C)CC4)cc3OC)ncc2Cl)c1 [WZ4002] | 0.796 | 0.385 | 0.0645 | 0.0165 | 0.151 | 0.547 | 0.0574 | 0.576 | > 10000 | 3380 | 8030 | 4510 | 1190 | > 10000 | 4.01 | 2.96 | 2.38 | 3.99 | 2.87 | 2.59 | 2.42 | 2.97
9 | 1280 | 2910 | C=CC(=O)Nc1cccc(Sc2nc(Nc3ccc(N4CCN(C)CC4)cc3)ncc2Cl)c1 [WZ8040] | 0.282 | 0.00227 | 0.0112 | 0.0196 | 0.00541 | 0.00441 | 0.024 | 0.0235 | 9250 | 2310 | 8210 | 4060 | 2090 | 2960 | 3.77 | 2.51 | 2.45 | 3.39 | 2.85 | 2.46 | 2.42 | 2.81
